Reference: PubChem BioAssay (NCI)
Values joined by “and” are separate entries in the source; they are usually repeats but may differ in a detail not shown here. Equal values may be shown once.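 Grown in 96-well plates, cells were treated for 48 hours with each compound at five concentrations. Insufficient inhibition: endpoint recorded as highest concentration tested. GI50 is the concentration that inhibits growth by half. Definition used: TGI = concentration required for complete inhibition of growth.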

What was measured:
Experiment in all cases: growth of human tumour cells (NCI), 48 h
786-0 renal = tested on: 786-0 renal
CAKI-1 renal = tested on: CAKI-1 renal
COLO 205 colon = tested on: COLO 205 colon
HOP-62 NSCLC = tested on: HOP-62 NSCLC
MDA-MB-231 breast = tested on: MDA-MB-231 breast
NCI-H522 lung = tested on: NCI-H522 lung
OVCAR-4 ovarian = tested on: OVCAR-4 ovarian
PC-3 prostate = tested on: PC-3 prostate
SK-MEL-5 melanoma = tested on: SK-MEL-5 melanoma
UACC-257 melanoma = tested on: UACC-257 melanoma

SMILES | TGI (786-0 renal) | TGI (CAKI-1 renal) | TGI (COLO 205 colon) | TGI (HOP-62 NSCLC) | TGI (MDA-MB-231 breast) | TGI (NCI-H522 lung) | TGI (OVCAR-4 ovarian) | TGI (PC-3 prostate) | TGI (SK-MEL-5 melanoma) | TGI (UACC-257 melanoma) | GI50 (786-0 renal) | GI50 (CAKI-1 renal) | GI50 (COLO 205 colon) | GI50 (HOP-62 NSCLC) | GI50 (MDA-MB-231 breast) | GI50 (NCI-H522 lung) | GI50 (OVCAR-4 ovarian) | GI50 (PC-3 prostate) | GI50 (SK-MEL-5 melanoma) | GI50 (UACC-257 melanoma)
CCOC(=O)C#Cc1ccc([N+](=O)[O-])cc1 | 3.41 µM | 3.47 µM | 3.09 µM | 11.3 µM | 4.64 µM | 3.09 µM | 23.3 µM | 8.54 µM | 9.63 µM | 10.8 µM | – | – | – | – | – | – | – | – | – | –
COc1cc2c(Nc3ccc(Br)cc3F)ncnc2cc1OCC1CCN(C)CC1 | 13.1 µM and > 10 µM | 5.24 µM and > 10 µM | 9.88 µM and > 10 µM | 14.6 µM and > 10 µM | 8.29 µM and > 10 µM | 7.31 µM and > 10 µM | 14.8 µM and > 10 µM | 18.6 µM and > 10 µM | 8.94 µM and > 10 µM | 3.44 µM and 3.6 µM | 2.96 µM and 3.01 µM | 0.729 µM and 1.28 µM | 3.6 µM and 4.33 µM | 3.24 µM and 5.81 µM | 2.19 µM and 3.62 µM | 2 µM and 1.28 µM | 2.92 µM and 5.59 µM | 4.06 µM and 3.9 µM | 4.38 µM and 5.5 µM | 1.85 µM and 1.73 µM
CC(C)NC(=O)OCc1c(COC(=O)NC(C)C)c(-c2ccc[n+](COC(=O)C3CC3)c2)n2c1CCC2 | > 100 µM | 89 µM | > 100 µM | > 100 µM | > 100 µM | 63.1 µM | > 100 µM | > 100 µM | > 100 µM | > 100 µM | – | – | – | – | – | – | – | – | – | –
O=C1/C(=C/c2ccccc2)CN(CCC(=O)N2C/C(=C\c3ccccc3)C(=O)/C(=C/c3ccccc3)C2)C/C1=C\c1ccccc1 | 32.9 µM | 41.1 µM | > 67.5 µM | 49.1 µM | 56.2 µM | 62.7 µM | 83.1 µM | > 69.9 µM | 47.2 µM | > 100 µM | 9.8 µM | 8.5 µM | 12.4 µM | 19.2 µM | 10.7 µM | 14.6 µM | 18.8 µM | 6.02 µM | 14.1 µM | 24.6 µM
CN(C)c1ccc2cc(-c3cc4c(oc3=O)-c3ccccc3OC4O)c(=O)oc2c1 (centres undefined) | > 25 µM | > 25 µM | 8.19 µM | 11.6 µM | 11.5 µM | 10.2 µM | > 25 µM | 15.1 µM | 4.67 µM | 10.6 µM | 8.33 µM | 7.07 µM | 3.89 µM | 3.88 µM | 4.9 µM | 3.6 µM | 0.55 µM | 3.85 µM | 0.752 µM | 2.79 µM
CC1OC(O[C@H]2/C=C/C=C/C=C/C=C/C=C/C=C/C=C/[C@H](C)[C@@H](O)[C@@H](C)[C@H](C)OC(=O)C[C@H](O)C[C@H](O)CC[C@@H](O)[C@H](O)C[C@H](O)C[C@]3(O)C[C@H](O)[C@@H](C(=O)O)[C@H](C2)O3)C(O)C(N)C1O (some centres undefined) | 29.2 µM | 41.7 µM | 45.2 µM | 42.2 µM | 48.2 µM | 20.9 µM | 51.2 µM | 31.8 µM | 59 µM | 40.4 µM | – | 12.7 µM | – | 20.5 µM | 32.9 µM | – | – | – | 25.8 µM | 12.2 µM
COC1CC2C=CC3C4OC2(/C(C)=C/C(C)C(C(C)O)OC1=O)C3C(O)C(C)C4OC(=O)c1ccc[nH]1 (centres undefined) | > 100 µM | > 100 µM | > 100 µM | > 100 µM | > 100 µM | > 100 µM | > 100 µM | > 100 µM | > 100 µM | > 100 µM | – | – | – | – | – | – | – | – | – | –
O=C(O[C@H]1CN[C@H](C#Cc2cc3ncnc(Nc4ccc(OCc5cccc(F)c5)c(Cl)c4)c3s2)C1)N1CCOCC1 | 9.66 µM | > 25 µM | 11.1 µM | > 25 µM | 14.5 µM | 8.12 µM | > 25 µM | > 25 µM | > 25 µM | > 25 µM | 4.68 µM | 3.17 µM | 5.32 µM | > 13 µM | 5.09 µM | 1.41 µM | 10.3 µM | 4.93 µM | 8.55 µM | > 19.1 µM
CCn1cc(C(=O)N/N=C/c2cccc(F)c2)c(=O)c2cc(F)c(N3CCNC(C)C3)c(F)c21 (centres undefined) | 3.16 µM | 3.15 µM | 3.25 µM | 3.09 µM | 3.14 µM | 3.32 µM | 4.22 µM | 3.09 µM | 3.19 µM | 3.17 µM | 1.63 µM | 1.73 µM | 1.71 µM | 1.66 µM | 1.68 µM | 1.76 µM | 2.02 µM | 1.62 µM | 1.75 µM | 1.67 µM
N/C(=N\c1nc2ccccc2s1)NC(=O)Nc1ccccc1Cl | 10.4 µM | 15.5 µM | 2.13 µM | 26.7 µM | 8.21 µM | 11.9 µM | 8.53 µM | > 71.9 µM | 13.5 µM | > 100 µM | 0.184 µM | 0.0624 µM | 0.151 µM | 0.19 µM | 0.431 µM | 0.0439 µM | 2.71 µM | 0.13 µM | 0.318 µM | 18.6 µM
O=C1/C(=C/c2ccccc2Br)COc2ccc(O)c(O)c21 | 4.16 µM | 2.74 µM | 3.95 µM | 6.54 µM | 6.17 µM | 0.494 µM | 10.2 µM | 9.89 µM | 3.01 µM | 5.17 µM | 1.55 µM | 1.31 µM | 1.96 µM | 2.29 µM | 1.42 µM | 0.196 µM | 2.35 µM | 1.04 µM | 1.63 µM | 1.53 µM
CN(C1=NS(=O)(=O)N=C(N(C)c2ccccc2)O1)c1ccccc1 | 72.7 µM | 45.4 µM | 46 µM | 41.9 µM | 41 µM | 46.2 µM | 51.5 µM | > 100 µM | 25.5 µM | 57.4 µM | – | – | – | – | – | – | – | – | – | –
COc1cc(C)[nH]c(=O)c1CN1CCc2c(Cl)cc([C@H](OC)C3COC3)c(Cl)c2C1=O | > 100 µM | > 100 µM | > 100 µM | > 100 µM | > 100 µM | > 100 µM | > 100 µM | > 100 µM | > 100 µM | > 100 µM | > 100 µM | > 100 µM | > 100 µM | > 100 µM | > 100 µM | > 100 µM | > 100 µM | > 100 µM | > 100 µM | > 100 µM
O=C1CC2C(=O)C1C(C(=O)O)C2C(=O)O (centres undefined) | > 100 µM | > 100 µM | > 100 µM | > 100 µM | > 100 µM | > 100 µM | > 100 µM | > 100 µM | > 100 µM | > 100 µM | – | – | – | – | – | – | – | – | – | –
COc1ccc(-c2nc(N)c3ncn(C4OC(CO)C(O)C4O)c3n2)cc1 (centres undefined) | > 100 µM | > 100 µM | > 100 µM | > 100 µM | > 100 µM | > 100 µM | > 100 µM | > 100 µM | > 100 µM | > 100 µM | – | – | – | – | – | – | – | – | – | –
Cc1cccc2c1O/C(=C\c1ncc([N+](=O)[O-])n1C)C2=O | 0.969 µM | 0.479 µM | 1.42 µM | 1.97 µM | 1.51 µM | 0.523 µM | 6.65 µM | – | 0.367 µM | 5.2 µM | 0.28 µM | 0.135 µM | 0.254 µM | 0.599 µM | 0.295 µM | 0.188 µM | 0.635 µM | 0.445 µM | 0.152 µM | 0.542 µM
c1ccc(/N=C2\c3ccccc3CN2c2ccccn2)nc1 | > 100 µM | > 100 µM | > 100 µM | > 100 µM | > 100 µM | > 100 µM | > 100 µM | > 100 µM | > 100 µM | > 100 µM | – | – | – | – | – | – | – | – | – | –
NCCCn1c2c(c3cc4c(cc3c1=O)OCO4)C(=O)c1ccccc1-2 | 2.88 µM | 2.22 µM | > 100 µM | 0.729 µM | 2.88 µM | 4.39 µM | 0.721 µM | 0.6 µM | 0.656 µM | 4.7 µM | 1.49 µM | 0.688 µM | 3.61 µM | 0.187 µM | 1.45 µM | 1.92 µM | 0.199 µM | 0.134 µM | 0.215 µM | 1.38 µM
O=C1/C=C/[C@@H](O)[C@@H]2C[C@@H](O)C[C@H]2/C=C/CCC[C@H](CO)O1 | 4.87 µM | > 100 µM | 3.32 µM | > 100 µM | 4.81 µM | 7.74 µM | > 100 µM | > 100 µM | 2.08 µM | > 100 µM | 1.78 µM | 3.74 µM | 1.7 µM | 3.66 µM | 1.96 µM | 2.67 µM | 2.07 µM | 2.5 µM | 0.705 µM | 1.68 µM
COc1cccc(-c2nc(-c3ccc(NC(=O)c4ccccc4)cc3)[nH]c2-c2ccnc(Br)c2)c1 | 5.88 µM | 8.02 µM | > 100 µM | > 100 µM | > 100 µM | > 100 µM | > 100 µM | > 100 µM | 3.34 µM | > 100 µM | 0.702 µM | 2.21 µM | 3.55 µM | 2.82 µM | 3.97 µM | 3.17 µM | 4.9 µM | 3.25 µM | 1.79 µM | 5.34 µM
N#C/C(=C/C=C/c1ccccc1)S(=O)c1ccccc1 (centres undefined) | 1.36 µM | 1.55 µM | 2.07 µM | 5.36 µM | 1.56 µM | 1.35 µM | 2.27 µM | 3.33 µM | 3.05 µM | 2.41 µM | 0.322 µM | 0.418 µM | 0.482 µM | 1.29 µM | 0.371 µM | 0.306 µM | 0.329 µM | 1.35 µM | 1.65 µM | 0.845 µM
Cc1ccc(C(=O)CCC2C(=O)CC(C)(C)CC2=O)cc1 | > 100 µM | 32 µM | > 100 µM | > 100 µM | > 100 µM | 34.4 µM | > 100 µM | > 100 µM | > 100 µM | > 100 µM | – | – | – | – | – | – | – | – | – | –
Oc1cccc(Cn2c(-c3cccc(O)c3O)nc3ccccc32)c1O | 14.1 µM | 5.85 µM | 32.2 µM | 38.7 µM | 7.71 µM | 49.1 µM | > 100 µM | 34.2 µM | 18.1 µM | 50.1 µM | 1.86 µM | 2.26 µM | 11.7 µM | 3.77 µM | 0.92 µM | 7.88 µM | 5.2 µM | 6.69 µM | 5.76 µM | 19.3 µM
COc1c(B(O)O)cccc1-c1nc2c(F)cc3[nH]ncc3c2c2c1CCCC2 | 17.6 µM | 3.26 µM | 6.19 µM | 27.1 µM | 35.9 µM | 13.1 µM | 58.3 µM | > 29 µM | 11.5 µM | 24 µM | 1.33 µM | 0.333 µM | 1.61 µM | 0.133 µM | 0.0423 µM | 1.98 µM | 5.49 µM | 1.73 µM | 3.08 µM | 3.37 µM
